# Reference: US10294470B2, “Electronic expression of the inward rectifier in cardiocytes derived from human induced pluripotent stem cells” (The Research Foundation for The State University of New York, priority 2013, dated 2019)
# Tested on: h-iPSC-derived cardiac myocytes
# Test: Current clamp action potential recording in paced h-iPSC-derived cardiac myocytes with and without electronic IK1
# Format: cell-based, human
# Settings: 1 μM; for effect on action potential duration (APD): paced cells with electronic expression of IK1,synthetic; for effect on action potential duration / repolarization / effect on spontaneous activity: paced cells without electronic IK1
# Protocol: Commercially-available iPSC-derived cardiac myocytes (iCell Dynamics, WI), were prepared according to manufacturer's instructions. Briefly, ICELL® cardiac myocytes (cryopreserved single-cell suspensions in 1 ml cryovials) were stored in liquid nitrogen. Vials were thawed in a waterbath (37° C.). Cells were washed then rinsed with 1 ml of RT “ICELL® Cardiomyocyte Plating Medium.” An additional 8 ml of plating medium was added and cells mixed with solution by gentile inversion. Cardiocytes were seeded on 15 mm cover-slips coated with 0.01% (w/v) gelatin solution in 12-well plates. Cardiocytes were seeded (20,000-40,000/dish) in 2 ml of RT plating medium, permitting single cell culture, and incubated for 2+ days at 37° C., 7% CO2. Non adherent cells were removed by rinsing with “ICELL® Cardiomyocyte Maintenance Medium.” A further 2 ml of maintenance medium was added. Maintenance medium was changed every 2 days, and cells were used within 1 week.
# iPSC-derived cardiocytes were voltage clamped. Currents were recorded using whole-cell clamp at RT. Cells in the recording chamber (300 μl) were continuously perfused with Tyrode. Pipettes fabricated from borosilicate glass (Flaming/Brown horizontal micropipette puller) and tips heat-polished (NARISHIGE® microforge). Pipettes contained (mM): 10 NaCl, 125 KCl, 1 MgSO4, 5 EGTA, 5 ATP (Mg salt), 5 Tris-creatinephosphate, 0.3 GTP, 10 HEPES, pH 7.2. Extracellular solution (mM): 150 NaCl, 5.4 KCl, 0.5 Na2HPO4, 1 MgCl2, 2 CaCl2), 10 glucose, 10 HEPES, pH7.4. After establishing a seal (1-10 Gohm), suction and voltage pulses were used to rupture the patch. Currents were recorded (Axopatch-1D, Molecular Dynamics, CA) and interfaced to a PENTIUM® 4 computer via a DIGIDATA® 1322A (Molecular Dynamics, CA). PCLAMP® 9.0 (Molecular Dynamics, CA) was used to control protocols and data acquisition.
# We used an Analog and Digital I/O board PCIe-DAS1602/16 (Measurement Computing Corporation) installed on a on a DELL PRECISION® T7500 workstation with 2 INTEL® XEON® CPU E5520 to transfer the Vm signal to the signal of IK1 current. Source code is in the supplement.
# Analysis was performed using PCLAMP® 9 (Molecular Dynamics). Action potential duration (APD) was computed for 50% (APD50) and 90% (APD90) of repolarization in ms. Maximum rate of rise of the AP upstroke was determined (dVm/dtmax) in mV/ms. Resting membrane potential was recorded prior to each AP. For spontaneous APs, the diastolic characteristics were reported for the period of time between complete AP repolarization and the beginning of depolarization in the subsequent AP. Duration, and minimum/mean potentials were computed for the diastolic period.
# In order to overcome the lack of IK1 in h-iPSC-derived cardiac myocytes, we developed a variation of the dynamic clamp approach to inject a synthetic version of IK1 (FIG. 1). The center of the system is the isolated h-iPSC-derived cardiac myocyte under whole cell voltage or current clamp. Whole cell clamp is accomplished with a gigaseal under conventional current clamp mode. The membrane voltage of the cardiac myocyte is output from the amplifier and fed into a computer via a digitizer which calculates the inward rectifier current for the membrane potential, according to the equation shown in FIG. 1. The calculated value of IK1,Synthetic is passed through a potentiometer (used to adjust amplitude without sacrificing digital resolution) to scale IK1 and then summed with the standard stimulation input from PCLAMP®. A switch allows rapid changes between conventional current clamp and summed input. When the summed input is switched on, the myocyte receives the sum of two inputs: the standard AP stimulus current plus IK1,Synthetic from the real-time current simulator. The standard voltage clamp electronics can be driven via the summing circuit without modification of conventional voltage clamp and data recording with only minor software selection changes of input/output channels. […]
smiles,measurement,setting,value
COC(=O)C1=C(C)NC(C)=C([N+](=O)[O-])C1c1ccccc1C(F)(F)F (stereo not drawn) [BayK-8644],effect on action potential duration (APD),,clear AP prolongation
same,effect on action potential duration (APD),listed as BayK8644,APD is prolonged
same,effect on action potential duration / repolarization,,not uniformly observed
same,effect on spontaneous activity,,termination of spontaneous full scale AP activity
same,effect on action potential duration / repolarization,listed as BayK8644,severely shortened repolarization
same,effect on spontaneous activity,listed as BayK8644,terminated spontaneous activity
same,arrhythmogenic phenomenon of alternans,"with IK1,synthetic",alternans is observed
same,Ratio of APD90 with/without BayK8644,"with IK1,synthetic expression",major increase in APD
same,Ratio of APD90 with/without BayK8644,"without IK1,synthetic expression",anomalous decrease in APD90
